Test results taken from ChEMBL document CHEMBL4251615, “Discovery of anilino-furo[2,3-d]pyrimidine derivatives as dual inhibitors of EGFR/HER2 tyrosine kinase and their anticancer activity” (Eur J Med Chem, 2018).

Columns and labels:
HOP-92 = assay: Growth inhibition of human HOP92 cells assessed as cell growth at 10 uM incubated for 48 hrs by sulforhodamine B assay relative to control; type: functional; details: HOP-92, 48 h, read-out: Activity
OVCAR-4 = assay: Growth inhibition of human OVCAR4 cells assessed as cell growth at 10 uM incubated for 48 hrs by sulforhodamine B assay relative to control; type: functional; details: OVCAR-4, 48 h, read-out: Activity
BT-549 = assay: Growth inhibition of human BT549 cells assessed as cell growth at 10 uM incubated for 48 hrs by sulforhodamine B assay relative to control; type: functional; details: BT-549, 48 h, read-out: Activity
SK-MEL-28 = assay: Growth inhibition of human SK-MEL-28 cells assessed as cell growth at 10 uM incubated for 48 hrs by sulforhodamine B assay relative to control; type: functional; details: SK-MEL-28, 48 h, read-out: Activity
HCT-15 = assay: Growth inhibition of human HCT15 cells assessed as cell growth at 10 uM incubated for 48 hrs by sulforhodamine B assay relative to control; type: functional; details: HCT-15, 48 h, read-out: Activity
DU-145 = assay: Growth inhibition of human DU145 cells assessed as cell growth at 10 uM incubated for 48 hrs by sulforhodamine B assay relative to control; type: functional; details: DU-145, 48 h, read-out: Activity
MDA-MB-231 = assay: Growth inhibition of human MDA-MB-231 cells assessed as cell growth at 10 uM incubated for 48 hrs by sulforhodamine B assay relative to control; type: functional; details: MDA-MB-231, 48 h, read-out: Activity
U-251 = assay: Growth inhibition of human U251 cells assessed as cell growth at 10 uM incubated for 48 hrs by sulforhodamine B assay relative to control; type: functional; details: U-251, 48 h, read-out: Activity
PC-3 = assay: Growth inhibition of human PC3 cells assessed as cell growth at 10 uM incubated for 48 hrs by sulforhodamine B assay relative to control; type: functional; details: PC-3, 48 h, read-out: Activity
T47D = assay: Growth inhibition of human T47D cells assessed as cell growth at 10 uM incubated for 48 hrs by sulforhodamine B assay relative to control; type: functional; details: read-out: Activity
NCI-H226 = assay: Growth inhibition of human NCI-H226 cells assessed as cell growth at 10 uM incubated for 48 hrs by sulforhodamine B assay relative to control; type: functional; details: NCI-H226, 48 h, read-out: Activity
SF-268 = assay: Growth inhibition of human SF268 cells assessed as cell growth at 10 uM incubated for 48 hrs by sulforhodamine B assay relative to control; type: functional; details: SF-268, 48 h, read-out: Activity
OVCAR-3 = assay: Growth inhibition of human OVCAR3 cells assessed as cell growth at 10 uM incubated for 48 hrs by sulforhodamine B assay relative to control; type: functional; details: OVCAR-3, 48 h, read-out: Activity
NCI-H522 = assay: Growth inhibition of human NCI-H522 cells assessed as cell growth at 10 uM incubated for 48 hrs by sulforhodamine B assay relative to control; type: functional; details: NCI-H522, 48 h, read-out: Activity
TK-10 = assay: Growth inhibition of human TK10 cells assessed as cell growth at 10 uM incubated for 48 hrs by sulforhodamine B assay relative to control; type: functional; details: TK-10, 48 h, read-out: Activity
KM12 = assay: Growth inhibition of human KM12 cells assessed as cell growth at 10 uM incubated for 48 hrs by sulforhodamine B assay relative to control; type: functional; details: KM12, 48 h, read-out: Activity
Malme-3M = assay: Growth inhibition of human MALME-3M cells assessed as cell growth at 10 uM incubated for 48 hrs by sulforhodamine B assay relative to control; type: functional; details: read-out: Activity
CCRF-CEM = assay: Growth inhibition of human CCRF-CEM cells assessed as cell growth at 10 uM incubated for 48 hrs by sulforhodamine B assay relative to control; type: functional; details: read-out: Activity
SF-539 = assay: Growth inhibition of human SF539 cells assessed as cell growth at 10 uM incubated for 48 hrs by sulforhodamine B assay relative to control; type: functional; details: SF-539, 48 h, read-out: Activity
MDA-MB-468 = assay: Growth inhibition of human MDA-MB-468 cells assessed as cell growth at 10 uM incubated for 48 hrs by sulforhodamine B assay relative to control; type: functional; details: MDA-MB-468, 48 h, read-out: Activity
786-0 = assay: Growth inhibition of human 786-0 cells assessed as cell growth at 10 uM incubated for 48 hrs by sulforhodamine B assay relative to control; type: functional; details: 786-0, 48 h, read-out: Activity
SNB-75 = assay: Growth inhibition of human SNB75 cells assessed as cell growth at 10 uM incubated for 48 hrs by sulforhodamine B assay relative to control; type: functional; details: SNB-75, 48 h, read-out: Activity
LOX IMVI = assay: Growth inhibition of human LOXIMVI cells assessed as cell growth at 10 uM incubated for 48 hrs by sulforhodamine B assay relative to control; type: functional; details: read-out: Activity
HOP-62 = assay: Growth inhibition of human HOP62 cells assessed as cell growth at 10 uM incubated for 48 hrs by sulforhodamine B assay relative to control; type: functional; details: HOP-62, 48 h, read-out: Activity
COLO 205 = assay: Growth inhibition of human COLO205 cells assessed as cell growth at 10 uM incubated for 48 hrs by sulforhodamine B assay relative to control; type: functional; details: COLO 205, 48 h, read-out: Activity
[1] = biological target: Receptor tyrosine-protein kinase erbB-2 (Homo sapiens) (UniProt P04626); assay: Inhibition of recombinant human N-terminal GST-tagged HER2 (679 to 1255 residues) expressed in baculovirus infected Sf9 cells at 10 uM using poly[Glu:Tyr] (4:1) as substrate after 40 mins by Kinase-Glo plus luminescence assay relative to control
NCI-H460 = assay: Growth inhibition of human NCI-H460 cells assessed as cell growth at 10 uM incubated for 48 hrs by sulforhodamine B assay relative to control; type: functional; details: NCI-H460, 48 h, read-out: Activity

Receptor tyrosine-protein kinase erbB-2 (Homo sapiens), sequence (P04626 whole entry, the tested form may be a part): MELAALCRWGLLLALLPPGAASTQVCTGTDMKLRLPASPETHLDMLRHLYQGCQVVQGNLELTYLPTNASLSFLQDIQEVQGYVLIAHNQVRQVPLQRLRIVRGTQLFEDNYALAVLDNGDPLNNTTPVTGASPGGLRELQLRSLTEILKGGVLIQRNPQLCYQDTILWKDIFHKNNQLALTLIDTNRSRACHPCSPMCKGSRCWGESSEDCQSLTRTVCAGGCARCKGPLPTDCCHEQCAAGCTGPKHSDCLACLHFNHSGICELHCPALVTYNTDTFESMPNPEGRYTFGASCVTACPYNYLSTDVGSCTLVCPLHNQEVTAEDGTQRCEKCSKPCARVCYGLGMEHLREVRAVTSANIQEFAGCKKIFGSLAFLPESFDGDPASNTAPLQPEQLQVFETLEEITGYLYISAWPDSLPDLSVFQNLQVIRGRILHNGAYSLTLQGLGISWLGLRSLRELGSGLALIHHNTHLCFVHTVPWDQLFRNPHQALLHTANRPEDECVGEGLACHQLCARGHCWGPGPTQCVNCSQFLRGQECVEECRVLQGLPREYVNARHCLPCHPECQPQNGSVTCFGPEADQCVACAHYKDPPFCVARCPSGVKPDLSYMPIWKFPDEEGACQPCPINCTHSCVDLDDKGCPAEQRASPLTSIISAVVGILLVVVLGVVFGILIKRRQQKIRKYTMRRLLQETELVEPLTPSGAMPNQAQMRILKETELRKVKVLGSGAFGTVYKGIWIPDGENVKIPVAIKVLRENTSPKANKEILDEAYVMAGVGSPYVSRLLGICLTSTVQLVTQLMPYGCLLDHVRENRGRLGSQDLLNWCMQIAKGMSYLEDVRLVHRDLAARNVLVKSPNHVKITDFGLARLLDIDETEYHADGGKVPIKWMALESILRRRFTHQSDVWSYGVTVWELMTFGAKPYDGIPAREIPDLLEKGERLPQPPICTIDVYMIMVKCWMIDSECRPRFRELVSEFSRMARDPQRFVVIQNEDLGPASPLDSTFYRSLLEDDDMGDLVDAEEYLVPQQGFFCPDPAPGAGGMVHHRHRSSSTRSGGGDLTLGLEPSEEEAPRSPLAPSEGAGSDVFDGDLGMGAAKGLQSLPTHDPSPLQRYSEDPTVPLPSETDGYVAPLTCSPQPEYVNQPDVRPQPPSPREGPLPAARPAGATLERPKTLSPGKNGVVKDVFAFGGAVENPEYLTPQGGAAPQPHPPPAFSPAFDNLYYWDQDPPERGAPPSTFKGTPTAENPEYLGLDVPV

Row | SMILES | growth at 10 µM (HOP-92) | growth at 10 µM (OVCAR-4) | growth at 10 µM (BT-549) | growth at 10 µM (SK-MEL-28) | growth at 10 µM (HCT-15) | growth at 10 µM (DU-145) | growth at 10 µM (MDA-MB-231) | growth at 10 µM (U-251) | growth at 10 µM (PC-3) | growth at 10 µM (T47D) | growth at 10 µM (NCI-H226) | growth at 10 µM (SF-268) | growth at 10 µM (OVCAR-3) | growth at 10 µM (NCI-H522) | growth at 10 µM (TK-10) | growth at 10 µM (KM12) | growth at 10 µM (Malme-3M) | growth at 10 µM (CCRF-CEM) | growth at 10 µM (SF-539) | growth at 10 µM (MDA-MB-468) | also measured
1 | CCOC(=O)c1c(C)oc2ncnc(Nc3ccc(OCc4cccc(C)c4)cc3)c12 | 104% | 105% | 106% | 101% | 99.5% | 101% | 88.6% | 96.4% | 93.4% | 87.3% | 101% | 106% | 117% | 81% | 94.7% | 96.1% | 126% | 107% | 95.4% | 106% | growth at 10 µM (786-0): 103%; growth at 10 µM (SNB-75): 106%; growth at 10 µM (LOX IMVI): 91.8%; growth at 10 µM (HOP-62): 101%; growth at 10 µM (COLO 205): 100%; inhibition [1]: 16%; growth at 10 µM (NCI-H460): 95.5%
2 | CCOC(=O)c1c(C)oc2ncnc(Nc3ccc(OCc4ccc(Cl)c(Cl)c4)cc3)c12 | 116% | 121% | 94.9% | 102% | 104% | 108% | 84.3% | 104% | 103% | 90.1% | 94.4% | 104% | 118% | 91% | 88.5% | 102% | 131% | 110% | 98.4% | 96.5% | growth at 10 µM (786-0): 94.3%; growth at 10 µM (SNB-75): 102%; growth at 10 µM (LOX IMVI): 95.1%; growth at 10 µM (HOP-62): 101%; growth at 10 µM (COLO 205): 111%; inhibition [1]: 13%; growth at 10 µM (NCI-H460): 102%
3 | CCOC(=O)c1c(C)oc2ncnc(Nc3ccc(OCc4ccc(Cl)cc4)cc3)c12 | 107% | 104% | 96.1% | 101% | 108% | 106% | 101% | 107% | 100% | 84% | 98.8% | 109% | 117% | 84% | 87.4% | 101% | 123% | 110% | 98.2% | 89.8% | growth at 10 µM (786-0): 98%; growth at 10 µM (SNB-75): 116%; growth at 10 µM (LOX IMVI): 95.8%; growth at 10 µM (HOP-62): 97.7%; growth at 10 µM (COLO 205): 111%; inhibition [1]: 18%; growth at 10 µM (NCI-H460): 107%
